Measurements: PMC7230911, “Meroterpenoids from the Brown Alga Cystoseira usneoides as Potential Anti-Inflammatory and Lung Anticancer Agents” (Marine Drugs, 2020)

Test system: iNOS
Experiment: iNOS protein expression in LPS-stimulated THP-1 macrophages (western blot)
Type: cell-based, human
Details: 8 μg/mL, LPS-stimulated THP-1 cells
Method: COX-2 is the key enzyme regulating the production of prostaglandins, which are the central mediators of inflammation. On the other hand, iNOS enzyme represents an important molecular target closely involved in inflammatory responses. Thus, the effect of the AMTs 1–8 on LPS-induced COX-2 and iNOS protein expression was investigated by western blot analysis.
Figure 3 Effect of meroterpenoids 1–8 on LPS-induced COX-2 and iNOS protein expression in THP-1 macrophages. Cells were pretreated for 1 h with the compounds (1, 2, 3, 4, 7, and 8 at 8 μg/mL; 5 and 6 at 4 μg/mL) and then stimulated with LPS (1 μg/mL). Cytosolic lysates from 24 h-stimulated cells were separated on 10% SDS-PAGE. COX-2, iNOS, and β-actin were detected by western blot analysis. Data are expressed as means ± SE from three independent experiments. Statistical significance is indicated (+++ p < 0.001 and ++ p < 0.01, vs. Control, respectively; * p < 0.05, and ** p < 0.01 vs. Control + LPS).
Western blotting was used to measure the protein levels of COX-2 and iNOS [65]. […] Proteins concentration in cell lysates was determined by Bio-Rad Protein Assay, based on the method of Bradford (BioRad, Richmond CA, USA). […] The protein band densities were quantified using a Scientific Imaging Systems (Biophotonics ImageJ Analysis Software, National Institute of Mental Health, Bethesda, MD, USA).

COc1c(C)cc(O)cc1C/C=C(\C)CC(=O)/C=C(\C)CCCC(C)(O)C(=O)/C=C/C(C)(C)O (stereo not shown) [Compound 2, 11-hydroxy-1’-O-methylamentadione]
effect on iNOS (in words): significantly inhibited
